The values below come from the NIST ThermoML archive (doi:10.1016/j.jct.2016.09.031).

Series [1] can be described thus: molar heat capacity at constant pressure; mn = molality of the nth substance listed, in mol/kg. The note with it: 298.15 K, 100 kPa, Liquid, Flow calorimetry.
Series [2] in a line: molar heat capacity at constant pressure. The note with it: 298.15 K; 101.33 kPa; Liquid; Flow calorimetry.

Numbers after ± are expanded uncertainties.

For the compound `O` [water] + [Cl-].[Rb+], the “molar heat capacity at constant pressure” value in series [1] (m2 = 0) is on record as 75.11 ± 1.5 J/K/mol.
Same read-out and setting: the same measure for `O` [water] + [Cl-].[Cs+]: 75.11 ± 1.5 J/K/mol.
Regarding `[Cl-].[Na+]` [sodium chloride] + O, the “molar heat capacity at constant pressure” value in series [1] (m1 = 2.05) is on record as 72.32 ± 1.5 J/K/mol.
Take `[Cl-].[Cs+]` [cesium chloride] + O: the “molar heat capacity at constant pressure” value in series [1] (m1 = 0.2644) was determined as 74.19 ± 1.5 J/K/mol; in series [1] (m1 = 0.5336), 73.52 ± 1.5 J/K/mol; in series [1] (m1 = 1.066), 72.48 ± 1.5 J/K/mol; in series [1] (m1 = 2.018), 70.13 ± 1.4 J/K/mol; in series [1] (m1 = 3.02), 68.3 ± 1.4 J/K/mol; in series [1] (m1 = 3.877), 67.71 ± 1.4 J/K/mol. Further, the “molar heat capacity at constant pressure” value was determined as 66.01 ± 1.3 J/K/mol in series [1] (m1 = 5.674) and 65.63 ± 1.3 J/K/mol in series [1] (m1 = 6.822).
Take `O` [water]: the “molar heat capacity at constant pressure” value in series [2] came out at 75.11 ± 1.5 J/K/mol.
In the case of `[Cl-].[Rb+]` [rubidium chloride] + O, the “molar heat capacity at constant pressure” value in series [1] (m1 = 0.4938) is listed as 73.89 ± 1.5 J/K/mol; in series [1] (m1 = 0.8703) it was 73.2 ± 1.5 J/K/mol; in series [1] (m1 = 1.515) it was 71.66 ± 1.4 J/K/mol; in series [1] (m1 = 2.41) it was 69.91 ± 1.4 J/K/mol; in series [1] (m1 = 3.388), 68.46 ± 1.4 J/K/mol; in series [1] (m1 = 4.213), 67.56 ± 1.4 J/K/mol. Also, the “molar heat capacity at constant pressure” value in series [1] (m1 = 4.888) was 67.01 ± 1.3 J/K/mol; in series [1] (m1 = 5.84), 66.18 ± 1.3 J/K/mol.
